According to patent publication US7932270B2 (Cytokinetics, Inc., priority 2006, dated 2011):

Target: T1, chicken gizzard smooth muscle myosin subfragment-1 chemically crosslinked to cardiac or skeletal actin (Gallus gallus, UniProt P10587)
T1 construct: chicken gizzard smooth muscle myosin subfragment-1; from tissue; host or cells: chicken gizzard
Test: Smooth muscle myosin ATPase dose response assay (pyruvate kinase/horseradish peroxidase/pyruvate oxidase-coupled, amplex red fluorescence)
Type: biochemical
Settings: read-out: IC50 Arithmetic Mean
In short: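 Inhibition is measured in a peroxidase/pyruvate oxidase-linked format at pH 7.00 and 22° C, 0.15 mM ATP final. Myosin input is titrated to a target turnover since active fraction differs between preparations.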

T1 sequence (P02607 2-151): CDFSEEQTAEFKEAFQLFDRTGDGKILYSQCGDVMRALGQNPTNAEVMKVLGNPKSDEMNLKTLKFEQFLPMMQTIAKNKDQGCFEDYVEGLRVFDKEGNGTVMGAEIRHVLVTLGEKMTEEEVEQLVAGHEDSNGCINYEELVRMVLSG
T1 sequence (P10587 84-789): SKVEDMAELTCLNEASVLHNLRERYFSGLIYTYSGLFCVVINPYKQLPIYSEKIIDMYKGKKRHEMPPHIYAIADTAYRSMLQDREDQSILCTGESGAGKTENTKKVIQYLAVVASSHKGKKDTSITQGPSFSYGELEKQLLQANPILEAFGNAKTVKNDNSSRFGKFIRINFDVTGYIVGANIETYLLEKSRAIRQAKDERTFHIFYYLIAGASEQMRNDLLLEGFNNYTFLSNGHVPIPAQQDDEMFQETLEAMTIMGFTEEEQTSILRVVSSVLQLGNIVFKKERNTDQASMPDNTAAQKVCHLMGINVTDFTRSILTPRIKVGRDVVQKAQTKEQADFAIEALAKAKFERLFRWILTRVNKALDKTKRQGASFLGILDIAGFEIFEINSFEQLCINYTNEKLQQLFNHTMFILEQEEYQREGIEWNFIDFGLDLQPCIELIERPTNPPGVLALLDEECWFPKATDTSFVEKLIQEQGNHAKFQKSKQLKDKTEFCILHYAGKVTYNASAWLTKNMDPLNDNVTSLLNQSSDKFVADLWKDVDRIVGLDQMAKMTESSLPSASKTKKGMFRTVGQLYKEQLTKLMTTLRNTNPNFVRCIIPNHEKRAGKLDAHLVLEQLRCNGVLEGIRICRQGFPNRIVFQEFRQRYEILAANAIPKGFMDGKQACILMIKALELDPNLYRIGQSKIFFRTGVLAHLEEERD

IC50 [nM]	SMILES
38	N#Cc1cc(F)ccc1-c1ccc(C(=O)NCc2cccnc2)c(NCCc2cccc(F)c2)n1 [(6-(2-cyano-4-fluorophenyl)-2-{[2-(3-fluorophenyl)ethyl]amino}(3-pyridyl))-N-(3-pyridylmethyl)carboxamide]
5500	Cn1cc(-c2ccc(C(=O)NCC3CCN(CCCN)C3=O)c(NCCc3cccc(F)c3)n2)cn1 (centres unmarked) [N-{[1-(3-aminopropyl)-2-oxopyrrolidin-3-yl]methyl}(2-{[2-(3-fluorophenyl)ethyl]amino}-6-(1-methylpyrazol-4-yl)(3-pyridyl))carboxamide]
1240	NCc1ncccc1CNC(=O)c1ccc(-c2cn[nH]c2)nc1NCCc1ccccn1 [N-{[2-(aminomethyl)(3-pyridyl)]methyl}{6-pyrazol-4-yl-2-[(2-(2-pyridyl)ethyl)amino](3-pyridyl)}carboxamide]
266	N#Cc1ccccc1-c1ccc(C(=O)NC[C@H]2CCC(=O)N2CCCCCN2C(=O)c3ccccc3C2=O)c(NCCc2cccc(F)c2)n1 [N-({(2R)-1-[5-(1,3-dioxobenzo[c]azolin-2-yl)pentyl]-5-oxopyrrolidin-2-yl}methyl)(6-(2-cyanophenyl)-2-{[2-(3-fluorophenyl)ethyl]amino}(3-pyridyl))carboxamide]
1320	O=C(NCc1cccnc1)c1ccc(-c2ccccc2F)nc1NCCc1ccccn1 [{6-(2-fluorophenyl)-2-[(2-(2-pyridyl)ethyl)amino](3-pyridyl)}-N-(3-pyridylmethyl)carboxamide]
13	N#Cc1ccccc1-c1ccc(C(=O)NCc2cccnc2NCCN)c(NCCc2cccc(F)c2)n1 [N-({2-[(2-aminoethyl)amino](3-pyridyl)}methyl)(6-(2-cyanophenyl)-2-{[2-(3-fluorophenyl)ethyl]amino}(3-pyridyl))carboxamide]
110	N#Cc1ccccc1-c1ccc(C(=O)NC[C@H]2CCC(=O)N2CCN)c(NCCc2cccc(F)c2)n1 [N-{[(2R)-1-(2-aminoethyl)-5-oxopyrrolidin-2-yl]methyl}(6-(2-cyanophenyl)-2-{[2-(3-fluorophenyl)ethyl]amino}(3-pyridyl))carboxamide]
1280	N#Cc1ccccc1-c1ccc(C(=O)N[C@H](CCCCN)C(N)=O)c(NCCc2cccc(F)c2)n1 [N-((1R)-5-amino-1-carbamoylpentyl)(6-(2-cyanophenyl)-2-{[2-(3-fluorophenyl)ethyl]amino}(3-pyridyl))carboxamide]
313	Cn1cc(-c2ccc(C(=O)NCc3ccnn3CCN)c(NCCc3cccc(F)c3)n2)cn1 [N-{[1-(2-aminoethyl)pyrazol-5-yl]methyl}(2-{[2-(3-fluorophenyl)ethyl]amino}-6-(1-methylpyrazol-4-yl)(3-pyridyl))carboxamide]
2960	CNC(=O)CCCNC(=O)c1ccc(-c2ccccc2C#N)nc1NCCc1cccc(F)c1 [4-[(6-(2-cyanophenyl)-2-{[2-(3-fluorophenyl)ethyl]amino}(3-pyridyl))carbonylamino]-N-methylbutanamide]
98	O=Cc1cc(-c2ccc(C(=O)NCc3cccnc3)c(NCCc3cccc(F)c3)n2)cs1 [(2-{[2-(3-fluorophenyl)ethyl]amino}-6-(5-formyl(3-thienyl))(3-pyridyl))-N-(3-pyridylmethyl)carboxamide]
572	N#Cc1ccccc1-c1ccc(C(=O)NCC2CCN(C(=O)CN)CC2)c(NCCc2cccc(F)c2)n1 [N-{[1-(2-aminoacetyl)(4-piperidyl)]methyl}(6-(2-cyanophenyl)-2-{[2-(3-fluorophenyl)ethyl]amino}(3-pyridyl))carboxamide]
44	N#Cc1ccccc1-c1ccc(C(=O)NC[C@H]2CCN2C(=O)CN)c(NCCc2cccc(F)c2)n1 [N-{[(2R)-1-(2-aminoacetyl)azetidin-2-yl]methyl}(6-(2-cyanophenyl)-2-{[2-(3-fluorophenyl)ethyl]amino}(3-pyridyl))carboxamide]
62	N#Cc1ccccc1-c1ccc(C(=O)NC[C@H]2CCCN2C(=O)CCCN)c(NCCc2ccccc2)n1 [N-{[(2R)-1-(4-aminobutanoyl)pyrrolidin-2-yl]methyl}{6-(2-cyanophenyl)-2-[(2-phenylethyl)amino](3-pyridyl)}carboxamide]
2810	N#Cc1ccccc1-c1ccc(C(=O)NC[C@H]2CN(CCCN)CC(=O)N2)c(NCCc2cccc(F)c2)n1 [N-{[(2S)-4-(3-aminopropyl)-6-oxopiperazin-2-yl]methyl}(6-(2-cyanophenyl)-2-{[2-(3-fluorophenyl)ethyl]amino}(3-pyridyl))carboxamide]
1930	CC(C)(C)OC(=O)N1CCC[C@@H]1CNC(=O)c1ccc(-c2ccccc2C#N)nc1NCCc1cccc(F)c1 [tert-butyl (2R)-2-{[(6-(2-cyanophenyl)-2-{[2-(3-fluorophenyl)ethyl]amino}(3-pyridyl))carbonylamino]methyl}pyrrolidinecarboxylate]
4640	C[C@H](CNC(=O)c1cc(F)c(-c2cn[nH]c2)nc1NCCn1cccn1)NC(=O)CN

IC50 [nM]	SMILES
37300	O=C(NCc1cccnc1)c1ccc(-c2ccccc2)nc1NCCN1CCOCC1 [{2-[(2-morpholin-4-ylethyl)amino]-6-phenyl(3-pyridyl)}-N-(3-pyridylmethyl)carboxamide]
152	C[C@H](CNC(=O)c1ccc(-c2ccccc2C#N)nc1NCCc1cccc(F)c1)N(C)C(=O)CN
460	N#Cc1ccccc1-c1ccc(C(=O)NCc2cccnc2)c(NCCc2ccccn2)n1 [{6-(2-cyanophenyl)-2-[(2-(2-pyridyl)ethyl)amino](3-pyridyl)}-N-(3-pyridylmethyl)carboxamide]
376	N#Cc1ccccc1-c1ccc(C(=O)NC[C@H]2CCC(=O)N2CCCCN2C(=O)c3ccccc3C2=O)c(NCCc2cccc(F)c2)n1 [N-({(2R)-1-[4-(1,3-dioxobenzo[c]azolin-2-yl)butyl]-5-oxopyrrolidin-2-yl}methyl)(6-(2-cyanophenyl)-2-{[2-(3-fluorophenyl)ethyl]amino}(3-pyridyl))carboxamide]
2430	O=C(NCc1cccnc1)c1ccc(-c2ccccc2)nc1NCCc1ccccc1O [(2-{[2-(2-hydroxyphenyl)ethyl]amino}-6-phenyl(3-pyridyl))-N-(3-pyridylmethyl)carboxamide]
29	N#Cc1ccccc1-c1ccc(C(=O)NCC2CCCC(=O)N2)c(NCCc2cccc(F)c2)n1 (centres unmarked) [(6-(2-cyanophenyl)-2-{[2-(3-fluorophenyl)ethyl]amino}(3-pyridyl))-N-[(6-oxo(2-piperidyl))methyl]carboxamide]
791	N#Cc1ccccc1-c1ccc(C(=O)NC[C@H]2CCCC(=O)N2CCCCN2C(=O)c3ccccc3C2=O)c(NCCc2cccc(F)c2)n1 [N-({(2R)-1-[4-(1,3-dioxobenzo[c]azolin-2-yl)butyl]-6-oxo(2-piperidyl)}methyl)(6-(2-cyanophenyl)-2-{[2-(3-fluorophenyl)ethyl]amino}(3-pyridyl))carboxamide]
281	O=C(NCc1cccnc1)c1ccc(-c2cccc(CO)c2)nc1NCCc1cccc(F)c1 [(2-{[2-(3-fluorophenyl)ethyl]amino}-6-[3-(hydroxymethyl)phenyl](3-pyridyl))-N-(3-pyridylmethyl)carboxamide]
40	O=C(NCc1cccnc1)c1ccc(-c2ccsc2)nc1NCCc1cc(F)cc(F)c1 [(2-{[2-(3,5-difluorophenyl)ethyl]amino}-6-(3-thienyl)(3-pyridyl))-N-(3-pyridylmethyl)carboxamide]
14900	COc1cccc(-c2ccc(C(=O)NCc3cccnc3)c(NCCc3ccccn3)n2)c1 [{6-(3-methoxyphenyl)-2-[(2-(2-pyridyl)ethyl)amino](3-pyridyl)}-N-(3-pyridylmethyl)carboxamide]
525	CC(C)(C)OC(=O)N1CC[C@@H]1CNC(=O)c1ccc(-c2cn[nH]c2)nc1NCCc1cccc(F)c1 [tert-butyl (2R)-2-{[(2-{[2-(3-fluorophenyl)ethyl]amino}-6-pyrazol-4-yl(3-pyridyl))carbonylamino]methyl}azetidinecarboxylate]
1000	C[C@H](CNC(=O)c1cc(F)c(-c2cnn(C)c2)nc1NCCc1cccc(F)c1)NS(C)(=O)=O [N-{(2R)-2-[(methylsulfonyl)amino]propyl}(5-fluoro-2-{[2-(3-fluorophenyl)ethyl]amino}-6-(1-methylpyrazol-4-yl)(3-pyridyl))carboxamide]
3560	Cn1cc(-c2ccc(C(=O)NC[C@H]3CNCC(=O)N3CCCN)c(NCCc3cccc(F)c3)n2)cn1 [N-{[(2R)-1-(3-aminopropyl)-6-oxopiperazin-2-yl]methyl}(2-{[2-(3-fluorophenyl)ethyl]amino}-6-(1-methylpyrazol-4-yl)(3-pyridyl))carboxamide]
15800	N#Cc1ccccc1-c1ccc(C(=O)NCC2(CCN=[N+]=[N-])CCCNC2=O)c(NCCc2cccc(F)c2)n1 (centres unmarked) [(6-(2-cyanophenyl)-2-{[2-(3-fluorophenyl)ethyl]amino}(3-pyridyl))-N-{[3-(3-diazo-3-azaprop-3-enyl)-2-oxo(3-piperidyl)]methyl}carboxamide]
122	C[C@H](CNC(=O)c1cc(F)c(-c2cn[nH]c2)nc1NCCc1cccc(F)c1)NC(=O)CN
277	N#Cc1ccccc1-c1ccc(C(=O)NCc2ccc(CN)cc2)c(NCCc2cccc(F)c2)n1 [N-{[4-(aminomethyl)phenyl]methyl}(6-(2-cyanophenyl)-2-{[2-(3-fluorophenyl)ethyl]amino}(3-pyridyl))carboxamide]
512	N#Cc1ccccc1-c1ccc(C(=O)NC[C@H]2CCCN(C(=O)CCCN)C2)c(NCCc2cccc(F)c2)n1 [N-{[(3R)-1-(4-aminobutanoyl)(3-piperidyl)]methyl}(6-(2-cyanophenyl)-2-{[2-(3-fluorophenyl)ethyl]amino}(3-pyridyl))carboxamide]

SMILES	IC50 [nM]
CC[C@H](CNC(=O)c1cc(F)c(-c2cn[nH]c2)nc1NCCc1cccc(F)c1)NC(=O)CNC(=O)OC(C)(C)C [N-((1R)-1-{[(5-fluoro-2-{[2-(3-fluorophenyl)ethyl]amino}-6-pyrazol-4-yl(3-pyridyl))carbonylamino]methyl}propyl)-2-[(tert-butoxy)carbonylamino]acetamide]	4320
